Laboratory results reported in patent publication US8592431B2, “Fused ring compound and use thereof” (Takeda Pharmaceutical Company Limited, priority 2009, dated 2013).

biological target: human AT1 receptor (Homo sapiens (Human), UniProt P30556); experiment: AT1 receptor antagonistic activity: [125I]-angiotensin II binding assay with AT1 membrane; conditions: 22.5 pM [125I]-angiotensin II, human AT1 receptor-expressing CHO-K1 membrane, 1 hr room temperature
Protocol: Evaluation of AT1 Receptor Antagonistic Activity
(1) Preparation of Human AT1 Receptor-Expressing CHO-K1 Cellular Membrane Fraction
CHO-K1 cell (RIKEN, Japan) capable of stable expression of human AT1 receptor was cultured, recovered, suspended in homogenize buffer (10 mM NaHCO3 (pH 7.4), 5 mM EDTA, 1× Complete EDTA free) [manufactured by Roche, Switzerland], and homogenized. The homogenate was centrifuged at low-speed (900×g, 10 min, 4° C.), and the supernatant was recovered and ultracentrifuged (90,000×g, 1 hr, 4° C.). The supernatant was discarded, and the pellets were resuspended in suspension buffer (50 mM Tris (pH 7.4), 1 mM EDTA, 1× Complete EDTA free).
(2) Evaluation of AT1 Receptor Antagonistic Activity
(9 μg) in the presence of AT1 membrane and test compound in 100 μL (total reaction volume) of reaction buffer (50 mM Tris (pH 7.4), 10 mM MgCl2 supplemented or not supplemented with 0.3 mg/mL fatty acid-free bovine serum albumin [manufactured by Wako Pure Chemical Industries, Ltd., Japan]). The reaction mixture was incubated in 96 well polypropylene plate for 1 hr at room temperature, and the reaction was quenched by rapid filtration (96 well cell harvester) through a GF/C filter treated with wash buffer (50 mM Tris (pH 7.4)). Subsequently, the filter was washed 5 times with 0.3 mL of ice-cooled wash buffer. […] Total binding was measured in the presence of 1% DMSO and nonspecific binding was measured in the presence of 1 μM Candesartan.

Sequence of human AT1 receptor (P30556 whole entry): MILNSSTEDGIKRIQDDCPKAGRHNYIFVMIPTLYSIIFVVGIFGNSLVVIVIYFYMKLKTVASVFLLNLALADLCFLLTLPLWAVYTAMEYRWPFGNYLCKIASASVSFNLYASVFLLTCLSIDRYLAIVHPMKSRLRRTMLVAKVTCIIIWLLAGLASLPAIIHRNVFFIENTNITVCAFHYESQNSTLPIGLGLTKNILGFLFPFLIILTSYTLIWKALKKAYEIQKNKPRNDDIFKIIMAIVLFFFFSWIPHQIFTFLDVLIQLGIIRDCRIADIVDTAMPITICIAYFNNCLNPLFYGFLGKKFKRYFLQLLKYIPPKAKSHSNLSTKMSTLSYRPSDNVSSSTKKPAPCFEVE

IC50 [nM] | Structure (SMILES)
2.2 | CCCc1c(Cc2ccc(-c3ccccc3-c3noc(=O)[nH]3)cc2F)c(=O)n([C@H]2CC[C@H](OC(C)C(C)(C)O)CC2)c2ncnn12 (single isomer, unassigned) [Example 248, 6-{[3-fluoro-2′-(5-oxo-4,5-dihydro-1,2,4-oxadiazol-3-yl)biphenyl-4-yl]methyl}-4-[trans-4-(2-hydroxy-1,2-dimethylpropoxy)cyclohexyl]-7-propyl[1,2,4]triazolo[1,5-a]pyrimidin-5(4H)-one]
1.8 | CCCc1c(Cc2ccc(-c3ccccc3-c3nc(=O)o[nH]3)cc2)c(=O)n(C2CCC(OCC(C)O)CC2)c2ccnn12 (single isomer, unassigned) [Example 440, 4-[trans-4-(2-hydroxypropoxy)cyclohexyl]-6-{[2′-(5-oxo-4,5-dihydro-1,2,4-oxadiazol-3-yl)biphenyl-4-yl]methyl}-7-propylpyrazolo[1,5-a]pyrimidin-5(4H)-one (Optically Active Form, Retention Time: Short)]
1.6 | CCCc1c(Cc2ccc(-c3ccccc3-c3noc(=O)[nH]3)cc2)c(=O)n(C2CCC(OCC(C)O)CC2)c2ccnn12 (single isomer, unassigned) [Example 441, 4-[trans-4-(2-hydroxypropoxy)cyclohexyl]-6-{[2′-(5-oxo-4,5-dihydro-1,2,4-oxadiazol-3-yl)biphenyl-4-yl]methyl}-7-propylpyrazolo[1,5-a]pyrimidin-5(4H)-one (Optically Active Form, Retention Time: Long)]

biological target: human PPARγ (Homo sapiens (Human), UniProt P37231); experiment: PPARγ agonistic activity: luciferase reporter assay in PPARγ:RXRα:4ERPP/CHO-K1 cells; assay type: cell-based; conditions: CHO-K1, test compound 10^−6 M; control compound X (1 μM) taken as 100%
Sequence (P37231 29-505): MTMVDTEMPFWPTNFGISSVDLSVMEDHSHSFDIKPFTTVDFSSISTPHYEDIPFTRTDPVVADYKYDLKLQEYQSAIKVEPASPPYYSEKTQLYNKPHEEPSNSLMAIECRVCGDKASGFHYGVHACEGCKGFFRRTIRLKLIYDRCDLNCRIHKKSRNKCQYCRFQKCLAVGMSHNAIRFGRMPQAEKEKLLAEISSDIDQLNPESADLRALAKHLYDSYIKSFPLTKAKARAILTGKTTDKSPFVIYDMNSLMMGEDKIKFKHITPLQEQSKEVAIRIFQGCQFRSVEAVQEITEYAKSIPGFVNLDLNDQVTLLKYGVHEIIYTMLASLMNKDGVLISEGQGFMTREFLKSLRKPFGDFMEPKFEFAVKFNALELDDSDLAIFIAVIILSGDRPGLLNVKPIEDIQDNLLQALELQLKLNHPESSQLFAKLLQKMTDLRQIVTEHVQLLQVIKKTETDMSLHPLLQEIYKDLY
Sequence (P19793 whole entry partner): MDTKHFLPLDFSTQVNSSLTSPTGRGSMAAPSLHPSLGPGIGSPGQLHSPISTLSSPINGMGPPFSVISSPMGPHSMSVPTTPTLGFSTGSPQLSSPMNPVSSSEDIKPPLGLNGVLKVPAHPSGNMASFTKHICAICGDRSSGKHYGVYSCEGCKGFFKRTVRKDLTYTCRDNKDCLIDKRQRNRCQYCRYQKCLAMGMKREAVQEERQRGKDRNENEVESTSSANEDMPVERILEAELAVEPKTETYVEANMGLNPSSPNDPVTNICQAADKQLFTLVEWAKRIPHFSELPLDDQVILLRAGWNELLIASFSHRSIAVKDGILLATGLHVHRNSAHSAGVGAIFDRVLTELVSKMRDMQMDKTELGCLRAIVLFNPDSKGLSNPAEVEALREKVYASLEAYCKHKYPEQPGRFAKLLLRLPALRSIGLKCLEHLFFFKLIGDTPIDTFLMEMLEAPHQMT
From the text: Evaluation of PPARγ Agonistic Activity
(5) Introduction of Human PPARγ- and RXRα-Expression Plasmid and Reporter Plasmid into Cho-K1 Cell as Well as Establishment of Expressed Cell
A CHO-K1 cell cultured in a 150 cm^2 cell culture flask [manufactured by Corning Costar Corporation, USA] comprising Ham's F12 medium [manufactured by INVITROGEN, USA] supplemented with 10% fetal bovine serum [manufactured by INVITROGEN, USA] was taken off by treating with 0.5 g/L trypsin-0.2 g/L EDTA (ethylenediamine tetraacetate) [manufactured by Life Technologies, Inc., USA], and then the cell was washed with PBS (Phosphate-buffered saline) [manufactured by INVITROGEN, USA], centrifuged (1000 rpm, 5 minutes) and suspended in PBS. Subsequently, DNA was introduced into the cell under the conditions shown below using GENE PULSER [manufactured by Bio-Rad Laboratories, USA].
Namely, to a cuvette having a 0.4 cm gap were added 8×10^6 cells and 10 μg of plasmid pVgRXR2-hPPARγ obtained in the above-mentioned (4) and 10 μg of reporter plasmid pGL3-4ERPP-TK neo obtained in the above-mentioned (3), which was subjected to electroporation at the voltage of 0.25 kV under the capacitance of 960 μF. Subsequently, the cell was transferred into a F12 medium comprising 10% fetal bovine serum and cultured for 24 hours, and then the cell was taken off again and centrifuged. Then, the pellet was suspended in Ham's F12 medium comprising 10% fetal bovine serum supplemented with 500 μg/ml of Geneticin [manufactured by INVITROGEN, USA] and 250 μg/ml of Zeocin [manufactured by INVITROGEN, USA]. The obtained suspension was diluted to the density of 10^4 cells/ml and inoculated in a 96-well plate [manufactured by Corning Costar Corporation, USA], which was cultured in a CO2 gas incubator at 37° C., whereby obtaining a Geneticin- and Zeocin-resistant transformant.
Subsequently, after the transformed cell line thus obtained was cultured in a 24-well plate [manufactured by Corning Costar Corporation, USA], a cell line in which expression of the luciferase was induced, i.e., PPARγ:RXRα:4ERPP/CHO-K1 cell was selected by the addition of 10 μM pioglitazone hydrochloride.
(6) Evaluation of PPARγ Agonistic Activity
PPARγ:RXRα:4ERPP/CHO-K1 cells obtained in the above-mentioned (5) were cultured in F12 medium [manufactured by INVITROGEN, USA] containing 10% fetal bovine serum [manufactured by MOREGATE, Australia], seeded in a 96 well half-area white plate [manufactured by Corning Coster Corporation, USA] at 5×10^3 cells/well, and cultured in a CO2 incubator at 37° C. overnight.
Then, the medium was removed from the 96 well half-area white plate, hamF12 medium containing 0.1% fatty acid-free bovine serum albumin (BSA) (45 μl) and a test compound (5 μl) were added, and the mixture was cultured in the CO2 incubator at 37° C. for 1 day. After removing the medium, Picagene 7.5 [manufactured by Dai Nippon Inki, Japan] (20 μl) diluted 2-fold with HBSS (HANKS' BALANCED SALT SOLUTION) [manufactured by BIO […], USA] was added, and the mixture was stirred. Using 1420 ARVO Multilabel Counter [manufactured by PerkinElmer, USA], luciferase activity was measured.
The percentage (%) was calculated from the luciferase activity of the test compound when the luciferase activity of the control compound (compound X: 5-[3-(4-{[2-(2-furyl)-5-methyl-1,3-oxazol-4-yl]methoxy}-3-methoxyphenyl)propyl]-1,3-oxazolidine-2,4-dione) (1 μM) was taken as 100% and the luciferase activity of the test compound non-administration group was taken as 0%.

activation at 1 µM [%] | Structure (SMILES)
17 | CCCc1c(Cc2ccc(-c3ccccc3-c3noc(=O)[nH]3)cc2)c(=O)n([C@H]2CC[C@H](OC(C)C(C)(C)O)CC2)c2ncnn12 (single isomer, unassigned) [Example 318, 4-[trans-4-(2-hydroxy-1,2-dimethylpropoxy)cyclohexyl]-6-{[2′-(5-oxo-4,5-dihydro-1,2,4-oxadiazol-3-yl)biphenyl-4-yl]methyl}-7-propyl[1,2,4]triazolo[1,5-a]pyrimidin-5(4H)-one (Retention Time: Short)]
17 | CCCc1c(Cc2ccc(-c3ccccc3-c3noc(=O)[nH]3)cc2F)c(=O)n([C@H]2CC[C@H](OC(C)C(C)(C)O)CC2)c2ncnn12 (single isomer, unassigned; (+)) [Example 247, (+)-6-{[3-fluoro-2′-(5-oxo-4,5-dihydro-1,2,4-oxadiazol-3-yl)biphenyl-4-yl]methyl}-4-[trans-4-(2-hydroxy-1,2-dimethylpropoxy)cyclohexyl]-7-propyl[1,2,4]triazolo[1,5-a]pyrimidin-5(4H)-one]

same assay, conditions: test compound 10^−6 M; control compound X (1 μM) taken as 100%

Structure (SMILES) | PPARγ agonistic activity (activation % (10^−6 M)) [%]
CCCc1c(Cc2ccc(-c3ccccc3-c3noc(=O)[nH]3)cc2)c(=O)n([C@H]2CC[C@H](OC(C)C(C)(C)O)CC2)c2ncnn12 (single isomer, unassigned) [Example 319, 4-[trans-4-(2-hydroxy-1,2-dimethylpropoxy)cyclohexyl]-6-{[2′-(5-oxo-4,5-dihydro-1,2,4-oxadiazol-3-yl)biphenyl-4-yl]methyl}-7-propyl[1,2,4]triazolo[1,5-a]pyrimidin-5(4H)-one (Retention Time: Long)] | 16
CCCCc1c(Cc2ccc(-c3ccccc3-c3noc(=O)[nH]3)cc2)c(=O)n(C2CCOC(C)C2)c2ncnn12 (stereo not drawn) [Example 160, 7-butyl-4-(2-methyltetrahydro-2H-pyran-4-yl)-6-{[2′-(5-oxo-4,5-dihydro-1,2,4-oxadiazol-3-yl)biphenyl-4-yl]methyl}[1,2,4]triazolo[1,5-a]pyrimidin-5(4H)-one] | 26
CCCc1c(Cc2ccc(-c3ccccc3-c3noc(=O)[nH]3)cc2)c(=O)n([C@H]2CC[C@H](OC(C)C(C)(C)O)CC2)c2ncnn12 (stereo partly drawn) [Example 300, 4-[trans-4-(2-hydroxy-1,2-dimethylpropoxy)cyclohexyl]-6-{[2′-(5-oxo-4,5-dihydro-1,2,4-oxadiazol-3-yl)biphenyl-4-yl]methyl}-7-propyl[1,2,4]triazolo[1,5-a]pyrimidin-5(4H)-one] | 16

The remaining lines, values ahead:

PPARγ agonistic activity (activation % (10^−6 M)) [%] | Structure (SMILES)
19 | CCCc1c(Cc2ccc(-c3ccccc3-c3noc(=O)[nH]3)cc2F)c(=O)n([C@H]2CC[C@H](OC(C)C(C)(C)O)CC2)c2ncnn12 (single isomer, unassigned) [Example 248, 6-{[3-fluoro-2′-(5-oxo-4,5-dihydro-1,2,4-oxadiazol-3-yl)biphenyl-4-yl]methyl}-4-[trans-4-(2-hydroxy-1,2-dimethylpropoxy)cyclohexyl]-7-propyl[1,2,4]triazolo[1,5-a]pyrimidin-5(4H)-one]
19 | CCCc1c(Cc2ccc(-c3ccccc3-c3noc(=O)[nH]3)cc2)c(=O)n(C2CCC(OCC(C)O)CC2)c2ccnn12 (single isomer, unassigned) [Example 441, 4-[trans-4-(2-hydroxypropoxy)cyclohexyl]-6-{[2′-(5-oxo-4,5-dihydro-1,2,4-oxadiazol-3-yl)biphenyl-4-yl]methyl}-7-propylpyrazolo[1,5-a]pyrimidin-5(4H)-one (Optically Active Form, Retention Time: Long)]
47 | CCCCc1c(Cc2ccc(-c3ccccc3-c3noc(=O)[nH]3)cc2)c(=O)n(C2CCOC(C)C2)c2ncnn12 (stereo not drawn) [Example 161, 7-butyl-4-(2-methyltetrahydro-2H-pyran-4-yl)-6-{[2′-(5-oxo-4,5-dihydro-1,2,4-oxadiazol-3-yl)biphenyl-4-yl]methyl}[1,2,4]triazolo[1,5-a]pyrimidin-5(4H)-one]

tested on: Male SHRs; experiment: Antihypertensive effect: mean blood pressure in SHRs after oral administration; assay type: in vivo, rat; conditions: SHR, dose 3 mg/kg, during 24 hours after administration
Protocol: Male SHRs (28-40 weeks old, Japan SLC, Inc., Japan) were anesthetized with sodium pentobarbital (50 mg/kg, i.p.). The left femoral artery was cannulated with a polyethylene catheter filled with saline comprising heparin (200 U/mL). The catheter was exteriorized at the back of the neck and each SHR was individually housed in a cage and left two or four days to recover. The mean blood pressure (MBP) was obtained from the systemic blood pressure which was monitored from the femoral artery using a pressure transducer connected to a polygraph system (Nihon Kohden Corporation). The heart rate was measured from the blood pressure pulse intervals. The rats which had MBP over 150 mmHg were used for the experiment. When the blood pressure had stabilized, vehicle (0.5 w/v % methylcellulose) or compounds were orally administered. All compounds were suspended in 0.5 w/v % methylcellulose and orally administered at a volume of 2 mL/kg. The MBP was measured during 24 hours after the administration.

Structure (SMILES) | Maximum MBP reduction (mmHg)
CCCc1c(Cc2ccc(-c3ccccc3C3=NOC(O)N3)cc2F)c(=O)n(C2CCC(OC(C)C(C)(C)O)CC2)c2ncnn12.[K+] (single isomer, unassigned; (-)) [Example 459, (−)-6-{[3-fluoro-2′-(5-oxo-4,5-dihydro-1,2,4-oxadiazol-3-yl)biphenyl-4-yl]methyl}-4-[trans-4-(2-hydroxy-1,2-dimethylpropoxy)cyclohexyl]-7-propyl[1,2,4]triazolo[1,5-a]pyrimidin-5(4H)-one potassium salt (Retention Time: Long)] | 64
